Source: patent US20260224716A1, “PTH ANALOGS FOR THE TREATMENT OF HYPOPARATHYROIDISM” (priority 2020, published 2026)

Key:
serum phosphate = test: Serum phosphate in parathyroidectomized rats, ten daily doses (Example 16); format: in vivo, Sprague-Dawley rats; settings: for starting serum phosphate concentration: PTx rats, before first dose
Text: (§1) Rats were randomly distributed among 5 groups and injected subcutaneously for ten consecutive days with either vehicle or SEQ ID NO; 87 (10, 25, 40 nmol/kg; n=8). Two separate vehicle treated groups of rats were studied. The first represented control rats surgically managed like the remaining rats, but their parathyroid gland was not removed (sham control). The second vehicle control group represented rats that were surgically managed in the same manner as the SEQ ID NO: 87 treated rats. Following surgery and one week prior to testing all the rats were placed on a defined diet at a specific calcium concentration.
Determination of phosphate levels was conducted with sampling at near-identical times to the serum calcium, differing only in the last days of the washout period. […] The starting phosphate level was 7.003 mg/dl, as compared to 11.317 mg/dl in the vehicle control group of the PTx rats. […] The difference between the two control groups was maintained through the course of the experiment. […] Efficacy was fully maintained through observation at Day 10, one day after the last administered dose. […] Twenty-five days after study initiation, all PTx-rats aligned as a group with increased phosphate, as compared to sham control rats.

serum calcium [1] = test: Serum calcium in rats after single subcutaneous dose (Example 10); format: in vivo, Sprague-Dawley rats; settings: 30 or 60 nmol/kg SC single dose; increase within the physiological range
Method: A 96-well plate spectrophotometer (SpectraMax M5, Molecular Devices) was employed for detection. Serum Ca and Pi were measured on days 0, 1, 2, 4, 5 and 7. Absorbance (Ab) was measured at 650 nm for Ca and 340 nm for Pi. Manufacturer linearity is provided up to 15 mg/dl for Ca and 10 mg/dl for Pi.

[2] = Pharmacokinetics of SEQ ID 87 in monkeys, single subcutaneous dose (Example 17); format: in vivo, cynomolgus monkeys; settings: FIGS. 26A, 26B
Method: A total of three monkeys were used at each test dose. The monkeys ranged in age from 2-4 years old at beginning of the study and having a weight of at least 2.5 kg. The dose volume was 0.3 mL/kg. Individual dose volumes were calculated based on the animals' most recently recorded body weight.
Animals were not fasted prior to collection. Blood was be collected via the femoral vein (or another appropriate site). Blood samples were maintained at 5±3° C. (wet ice or equivalent) and centrifuged at 5±3° C. within 1 hour of the collection of each blood sample. The resultant plasma was transferred to a tube and then stored under conditions set to maintain −75±15° C. until analysis.
Pharmacokinetic mean concentration-time data was analyzed using non-compartmental methods (Phoenix® WinNonlin® Version 7.0 or higher) based on the route of administration. The following parameters were calculated whenever possible and as data allows: Cmax, Tmax, and AUC. Descriptive statistics were generated using Phoenix WinNonlin.

[3] = Cleavage half-life / conversion of PTH prodrugs in PBS pH 7.4, 37° C. by LC-MS; format: physicochemical; settings: for Percentage of prodrug: prodrug in PBS, LC-MS peak areas
Procedure, shortened: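 Prodrugs incubated in PBS pH 7.4 at 37 °C, aliquots sampled over time for LC-MS (10–80% acetonitrile/0.1% TFA gradient). Prodrug and drug quantified by relative peak areas; dissociation rate constant from log prodrug concentration versus time.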

[4] = Pharmacokinetics in rats after single subcutaneous dose, LCMS (Example 10); settings: rats
Text: Female Sprague-Dawley rats were randomly distributed among four groups with five or six rats per group. […] Dose volume was based on body weight and recorded prior to dosing.

serum calcium [5] = test: Serum calcium in rats, repeat daily dosing 7 days (Example 13); format: in vivo, Sprague-Dawley rats; settings: daily SC 7 days; SEQ ID NO: 77 20 nmol/kg, SEQ ID NO: 87 20 or 40 nmol/kg; returned to initial values after washout
Method: Female Sprague-Dawley rats were single or double-housed and randomly assigned to four groups (n=5-6 per group) as described in Table 20, and then weighed.
After the treatment ceased, the animals were monitored on days 9 and 11 (washout period).
Body weight and food intake were measured on days 0, 1, 3, 5 and 7. Ca was measured on days 0, 1, 2, 3, 4, 7, 9 and 11. Pi was determined on the same samples, except for days 9 and 11.

serum calcium [6] = test: Serum calcium in parathyroidectomized rats, ten daily doses (Example 16); format: in vivo, Sprague-Dawley rats; settings: for starting serum calcium concentration: before first dose
Text: as §1
A 96-well plate spectrophotometer (SpectraMax M5, Molecular Devices) was employed for detection. […] Absorbance (Ab) was measured at 650 nm wavelength. Manufacturer provided linearity up to 15 mg/dL. The serum calcium was measured immediately prior to injection (time 0 hour), followed by 24, 48, 72, and 96 hours.

PTHR1 = molecular target: T1, PTHR1 (Homo sapiens, UniProt Q03431); test: cAMP Hunter Teriparatide Bioassay (CHO-K1 PTHR1 cells); format: cell-based
T1 construct: host or cells: CHO-K1
T1 sequence (Q03431 27-593): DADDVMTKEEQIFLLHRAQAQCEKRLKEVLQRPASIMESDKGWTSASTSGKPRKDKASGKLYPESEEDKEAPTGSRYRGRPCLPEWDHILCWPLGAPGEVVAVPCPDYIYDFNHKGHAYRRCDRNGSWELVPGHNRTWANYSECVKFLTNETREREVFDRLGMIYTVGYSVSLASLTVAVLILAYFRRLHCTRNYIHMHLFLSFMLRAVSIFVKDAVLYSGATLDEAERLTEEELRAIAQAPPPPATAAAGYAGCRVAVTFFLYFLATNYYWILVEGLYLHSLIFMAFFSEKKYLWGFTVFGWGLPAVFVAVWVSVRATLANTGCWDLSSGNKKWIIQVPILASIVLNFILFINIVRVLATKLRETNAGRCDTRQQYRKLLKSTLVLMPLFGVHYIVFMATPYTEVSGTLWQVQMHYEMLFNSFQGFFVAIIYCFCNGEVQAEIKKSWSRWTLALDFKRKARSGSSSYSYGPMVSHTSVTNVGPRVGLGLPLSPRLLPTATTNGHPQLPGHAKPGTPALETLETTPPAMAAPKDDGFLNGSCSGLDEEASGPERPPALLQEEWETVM
Method: The assessment of the bioactivity of a prodrug relative to its drug form was conducted in a proprietary commercial assay as contracted with Eurofins-Discover Rx Corporation win a cAMP Hunter® Teriparatide Bioassay (95-0118Y2). An 11-point dose curve in agonist mode was conducted for each individual peptide or incubation condition. Every sample was run at each dose in triplicate.
An 11-point dose curve in agonist mode was conducted for each individual peptide or incubation condition. Every sample was run at each dose in triplicate.
An 11-point dose curve in agonist mode was conducted for each individual peptide at each concentration. Every sample was run at each dose in triplicate.

What does the source list for `CC[C@H](C)[C@H](NC(=O)[C@H](CCC(=O)O)NC(=O)[C@H](CO)NC(=O)[C@@H](NC(=O)[C@H](CO)NC(=O)CN(C)C(=O)[C@H](N)CCCCNC(=O)CC[C@H](NC(=O)COCCOCCNC(=O)COCCOCCNC(=O)CC[C@H](NC(=O)CCCCCCCCCCCCCCCCC(=O)O)C(=O)O)C(=O)O)C(C)C)C(=O)N[C@@H](CCC(N)=O)C(=O)N[C@@H](CC(C)C)C(=O)N[C@@H](CCSC)C(=O)N[C@@H](Cc1c[nH]cn1)C(=O)N[C@@H](CC(N)=O)C(=O)N[C@@H](CC(C)C)C(=O)NCC(=O)N[C@@H](CCCCN)C(=O)N[C@@H](Cc1c[nH]cn1)C(=O)N[C@@H](CC(C)C)C(=O)N[C@@H](CC(N)=O)C(=O)N[C@@H](CO)C(=O)N[C@@H](CCSC)C(=O)N[C@@H](CCC(=O)O)C(=O)N[C@@H](CCCNC(=N)N)C(=O)N[C@H](C(=O)N[C@@H](CCC(=O)O)C(=O)N[C@@H](Cc1c[nH]c2ccccc12)C(=O)N[C@@H](CC(C)C)C(=O)N[C@@H](CCCNC(=N)N)C(=O)N[C@@H](CCCCN)C(=O)N[C@@H](CCCCN)C(=O)N[C@@H](CC(C)C)C(=O)N[C@@H](CCC(N)=O)C(=O)N[C@@H](CC(=O)O)C(=O)N[C@H](C(=O)N[C@@H](Cc1c[nH]cn1)C(=O)N[C@@H](CCCCNC(=O)CC[C@H](NC(=O)COCCOCCNC(=O)COCCOCCNC(=O)CC[C@H](NC(=O)CCCCCCCCCCCCCCCCC(=O)O)C(=O)O)C(=O)O)C(=O)O)C(C)C)C(C)C` [SEQ ID NO: 87]?
serum phosphate levels versus sham control (serum phosphate; PTx rats, 10, 25, 40 nmol/kg daily SC, after seven days): comparable to sham control rats; starting serum phosphate concentration (serum phosphate; treatment group 10 nmol/kg): 11.412 mg/dL; starting serum phosphate concentration (serum phosphate; treatment group 25 nmol/kg): 10.673 mg/dL; starting serum phosphate concentration (serum phosphate; treatment group 40 nmol/kg): 8.152 mg/dL; starting serum phosphate, decreased level versus PTx vehicle (serum phosphate; high-dose group 40 nmol/kg): 28%; starting serum phosphate, increase versus PTx vehicle (serum phosphate; low-dose group 10 nmol/kg): 1.0%; starting serum phosphate, decreased level versus PTx vehicle (serum phosphate; mid-dose group 25 nmol/kg): 5.7%; time of peak of serum calcium increase (serum calcium [1]): 3 days; difference of prodrug to drug serum concentration [2]: ~4 fold; half-life ([3]; PBS buffer, pH 7.4, PBS, LCMS over 192 hours, FIG. 10): 112 h; Percentage of prodrug ([3]; 0 h): 100%; Percentage of prodrug ([3]; 48 h): 74%; Percentage of prodrug ([3]; 72 h): 62%; Percentage of prodrug ([3]; 120 h): 46%; Percentage of prodrug ([3]; 192 h): 31%; time of return to baseline value, prodrug ([4]; SEQ ID NO: 87 30 nmol/kg SC): one week; tolerability ([4]; doses where prodrug and drug could be measured by LCMS): did not adversely affect the rats; Serum Ca levels during the treatment period (serum calcium [5]): gradually increased; serum calcium levels versus sham control (serum calcium [6]; PTx rats, 10, 25, 40 nmol/kg daily SC, after two days): virtually identical to sham control rats; serum calcium levels versus sham control (serum calcium [6]; PTx rats, mid and high-dose (25, 40 nmol/kg), four and seven days): matched or exceeded what was observed in the sham control rats; starting serum calcium concentration (serum calcium [6]; PTx rats, treatment group 10 nmol/kg): 4.5 mg/dL; starting serum calcium concentration (serum calcium [6]; PTx rats, treatment group 25 nmol/kg): 5.028 mg/dL; starting serum calcium concentration (serum calcium [6]; PTx rats, treatment group 40 nmol/kg): 5.108 mg/dL; starting serum calcium, decreased level versus PTx vehicle (serum calcium [6]; treatment group 10 nmol/kg): 3.4%; starting serum calcium, increased level versus PTx vehicle (serum calcium [6]; treatment group 25 nmol/kg): 7.9%; starting serum calcium, increased level versus PTx vehicle (serum calcium [6]; treatment group 40 nmol/kg): 9.6%; Hillslope (PTHR1; FIG. 11, prodrug incubated in PBS 1 day): 1.421; Hillslope (PTHR1; FIG. 11, prodrug incubated in PBS 2 day): 2.102; Hillslope (PTHR1; FIG. 11, prodrug incubated in PBS 3 day): 1.825; Hillslope (PTHR1; FIG. 11, prodrug incubated in PBS 5 day): 2.102; Hillslope (PTHR1; FIG. 11, prodrug incubated in PBS 8 day): 2.172; PTH agonism (PTHR1; conclusions from Table 14, FIGS. 8A-8C): full PTH agonist of high nM potency
